{"source": "patent US20100203634A1", "about": "“Inhibition of stem cell differentiation, enhancement of proliferation and selective induction of apoptosis by Wnt factors” (DeltaCell B.V., priority 2003, published 2010)", "key": {"fetal lung explants": {"tested_on": "fetal lung explants", "assay": "Fetal murine lung explant culture (hanging drop), stereomicroscopy and H/E histology of differentiation", "format": "cell-based, mouse", "description": "To provide proof of evidence, an in vitro explant lung culture (obtained from a mouse) is used. Generation of new alveolar tissue in patients is stimulated by activation or re-activation of alveolar bud formation. Growth and branching of alveolar buds, followed by transformation into alveolar ducts, sacs and pouches, results in the establishment of pulmonary acini.\nAs a proof of evidence, it is, therefore, shown that treatment with selected molecules involved in a Wnt pathway inhibits the differentiation process of alveolar differentiation. Inhibition of this differentiation process is achieved by applying a purified Wnt3a polypeptide to an in vitro lung explant culture of 13-day-old (E13) mouse embryos.\nThe (fetal) murine lung explant culture was generated according to our standard protocol. Briefly, complete lungs or individually dissected lung lobes were isolated from fetal mice and cultured for one to five days in a hanging drop culture system. The Wnt3a polypeptide was administered to the culture medium in different concentrations, ranging from 0 to 4000 ng/ml. The effect of this treatment was monitored by stereomicroscopy. The lung explant cultures were subsequently fixed for 30 minutes in 10% paraformaldehyde (PFA), 30 minutes in 2% PFA and 30 minutes in 4% PFA. After fixation, the lung explants were dehydrated through an increasing series of 2-isopropanol and subsequently embedded in paraffin. For the histological analysis, 4 μm thick sections were cut and stained with Hematoxilin and Eosin using standard techniques.\nAs a source for Wnt3a, recombinant mouse Wnt3a from R&D Systems (catalog nr. 1324-WN, R&D Systems, Inc. Minneapolis USA) was used. As culture medium, DMEM/HAM's F12 (1:1) from Biochrom AG, catalog nr. FG 4815, was used."}, "[1]": {"tested_on": "mesenchyme and epithelium of fetal lung explants", "assay": "PCNA immunohistochemistry (proliferation) on lung explants", "format": "cell-based, mouse", "protocol": "Detection of the PCNA epitopes was carried out by treating the sections with di-aminobenzidine (DAB) for 15 minutes.\nThe antibody against PCNA was purchased from Zymed Laboratories Inc. (cat nr. 18-0110). The secondary conjugate used was from Jackson Laboratories, Inc. (catalog nr. 115-056-062)."}, "[2]": {"tested_on": "fetal lung explants (E12.5)", "assay": "Quantification of cell proliferation using phospho histon H3 immunohistochemistry", "format": "cell-based, mouse", "protocol": "The number of cells undergoing mitosis was measured using immunohistochemical detection of phosphorylated histon H3, which is present only on condensed chromosomes during mitosis. Per condition, at least four different lung explants were treated and in total, 20 sections per condition were counted for phospho histon H3-positive cells by two different investigators. The primary antibody against phopho histon H3 (Ser10, clone 6G3) was purchased from Cell Signaling Technology and used according to the recommendations of the supplier.\nTo further determine the short-term effect of different Wnt3A concentrations upon the induction of proliferation, lung explants (E12.5) were cultured for one day with 0, 30, 125 and 500 ng/ml Wnt3a.\nThe lung explants were processed for immunohistochemical analysis and stained for Histon H3 phosphorylation, which can be used as a quantifiable cell proliferation marker as it is present in a fixed amount on condensed chromosomes only during active cell division (material and methods). […] However, most of the increase in proliferation could be accounted to the mesenchyme, where an increase in 40 to 60% of cells undergoing […] was observed."}, "[3]": {"tested_on": "Wnt-signaling pathway in human epithelial lung carcinoma cell line A549", "assay": "TopFlash/FopFlash reporter assay, A549", "format": "cell-based", "details": "A549, 20 hours", "protocol": "Primary mouse fibroblasts isolated from E12.5 lung explants, the human epithelial lung carcinoma cell line A549 cells (ATCC CCL-185), the human epithelial lung adenocarcinoma cell line Calu-3 (ATCC_HTB-55) and the normal human fetal lung fibroblast cell line HFL-1 cells (ATCC—153) were cultured in 96-well plates and transfected with the TopFlash and FopFlash reporter constructs using lipofectamine 2000 according to the manufacturer's instructions. As an internal control for transfection efficiency, a constitutive renilla luciferase reporter (Promega) was cotransfected. The cells were transfected with the above-mentioned reporter constructs and simultaneously treated with different concentrations of Wnt3A for 20 hours, after which the cells were lysed and luciferase expression was measured using a Berthold luminometer for two seconds (V. Korinek et al., Mol. Cell. Biol. 18:1248-1256, 1998). […]\nIn order to analyze if Wnt3A is able to activate the Wnt signal-transduction pathway in humans, we stimulated three different cell lines from human origin with Wnt3A and measured the response with the TopFlash/FopFlash reporter assay. The three human lung-derived cell lines analyzed were the lung epithelial carcinoma cell line A549 (FIG. 9B), the normal lung fibroblast line HFL-1 (FIG. 9C), and the epithelial adenocarcinoma cell line calu-3 (FIG. 9D)."}, "[4]": {"tested_on": "fetal lung explants (E12.5)", "assay": "Expression profiling of lung explants, Affymetrix MOE430AB microarray", "format": "cell-based, mouse", "protocol": "To further investigate the effect of Wnt3A inhibition on lung differentiation, we analyzed the expression profiles of Wnt3A-treated lung explants with microarray analysis using the Affymetrix chip set MOE430AB, containing the complete mouse transcriptome. The lung explants, per condition, ten complete fetal lungs isolated from E12.5 embryos, were treated for four hours with 0 and 250 ng/ml Wnt3A (Wnt0/4 hr and Wnt250/4 hr, respectively), and for 24 hours with 0, 10, 50 and 250 ng/ml Wnt3A ([…], […], Wnt50/24 hr, Wnt250/24 hr, respectively). The 60 lung explants were isolated together from six pregnant Swiss mice and randomly distributed over the six different conditions.\nAfter the indicated time period, total RNA was isolated, which was processed for the synthesis of a probe for hybridization onto the MOE-430AB chip sets. […] A rapid response was observed when the lungs were treated for four hours with 250 ng/ml Wnt3A."}, "[5]": {"details": "250 ng/ml, four hours, versus 0 ng/ml four hours"}, "[6]": {"details": "24 hours, \"the ng/ml wnt3a-treated group\""}}, "note": "Entries after “also recorded” stand apart in the source; their conditions may differ.", "data": [{"substance": "Wnt3a", "values": [{"measurement": "differentiation of the epithelium", "setting": "fetal lung explants; 500 ng/ml, four days", "result": "delayed; also recorded: undifferentiated character of the epithelium"}, {"measurement": "differentiation of the primordial lung epithelium (histology)", "setting": "fetal lung explants; 1000 ng/ml, five-day-old cultures", "result": "arrested at a stage comparable to that of the start of the culture (E13); also recorded: strong inhibitory effect on the development and differentiation of the fetal lung; also recorded: arrest of alveolar differentiation"}, {"measurement": "effect on cell viability", "setting": "fetal lung explants; 2000 ng/ml", "result": "affects the viability of all cells"}, {"measurement": "effect on lung development (stereomicroscopy)", "setting": "fetal lung explants; 2000 ng/ml and 4000 ng/ml, after one day", "result": "deleterious effect on lung development"}, {"measurement": "complete block of differentiation of fetal lung development", "setting": "fetal lung explants; 4, 20, 100 and 500 ng/ml, four days", "result": "None of these concentrations was effective in completely blocking the differentiation"}, {"measurement": "lung differentiation (stereomicroscopy)", "setting": "fetal lung explants; E13 lung explants, 1000 ng/ml, after 16 hours", "result": "total block of lung differentiation"}, {"measurement": "differentiation and alveolar development (stereomicroscopy)", "setting": "fetal lung explants; E13 lung explants, 1000 ng/ml, five days culture", "result": "no significant differentiation and alveolar development could be observed"}, {"measurement": "effects at the level of apoptosis and differentiation compared to control", "setting": "fetal lung explants; between 4 and 20 ng/ml, four days", "result": "no clear effects were visible"}, {"measurement": "concentration at which differentiation was strongly retarded with many picnotic cells", "setting": "fetal lung explants; histological examination at day 4", "result": "above 100 ng/ml"}, {"measurement": "concentration that does not show clear morphological changes", "setting": "fetal lung explants; lung explants", "result": "below 1 ng/ml"}, {"measurement": "PCNA staining in the bronchial epithelium", "setting": "[1]; 500 ng/ml, two days", "result": "marked overall increase in the intensity and frequency of PCNA staining; also recorded: elevated PCNA staining"}, {"measurement": "PCNA staining (proliferation) of epithelium and mesenchyme", "setting": "[1]; 1000 ng/ml, five days", "result": "the epithelium was still proliferating whereas most of the mesenchymal cells were inactive or dead; also recorded: strong reduction in proliferation of the mesenchyme versus the epithelium"}, {"measurement": "PCNA staining", "setting": "[1]; 1000 ng/ml, two days", "result": "reduces the PCNA staining below the control situation"}, {"measurement": "PCNA staining", "setting": "[1]; 2000 and 4000 ng/ml, two days", "result": "completely negative"}, {"measurement": "concentration at which proliferation is absent / inhibited", "setting": "[1]; lung explants", "result": "above 2000 ng/ml"}, {"measurement": "effect on proliferation", "setting": "[2]; 30 ng/ml, after one day", "result": "markedly increases proliferation"}, {"measurement": "increase in overall proliferation (phospho histon H3-positive cells)", "setting": "[2]; 30, 125 and 500 ng/ml, one day", "result": "> 20", "unit": "%"}, {"measurement": "concentration at which the maximum stimulatory effect on proliferation was reached", "setting": "[2]; one day", "result": "≤ 30", "unit": "ng/mL"}, {"measurement": "TopFlash/FopFlash reporter response", "setting": "[3]", "result": "respond to Wnt3A in a dosage-dependent manner; also recorded: strong induction of the Wnt-signaling pathway"}, {"measurement": "changes in gene expression", "setting": "[4]; 10 ng/ml, 24 hours", "result": "capable of inducing significant changes in gene expression"}, {"measurement": "down-regulated genes", "setting": "[4]; 50 ng/ml, 24 hours", "result": 92, "unit": "genes"}, {"measurement": "up-regulated genes", "setting": "[4]; 50 ng/ml, 24 hours", "result": 95, "unit": "genes"}, {"measurement": "genes whose four-hour profile is opposite from the 24-hour Wnt3A-treated profiles", "setting": "[4]; 250 ng/ml four hours versus 24-hour groups", "result": "circa 75%"}, {"measurement": "down-regulated genes, more than two-fold", "setting": "[4]; 250 ng/ml, 24 hours", "result": 152, "unit": "genes"}, {"measurement": "up-regulated genes, more than two-fold", "setting": "[4]; 250 ng/ml, 24 hours", "result": 195, "unit": "genes"}, {"measurement": "down-regulated genes, more than two-fold", "setting": "[4]; [5]", "result": 1165, "unit": "genes"}, {"measurement": "up-regulated genes, more than two-fold", "setting": "[4]; [5]", "result": 446, "unit": "genes"}, {"measurement": "cluster analysis of expression profiles of 4500 genes: effect on differentiation", "setting": "[4]; 10, 50 and 250 ng/ml, 24 hours", "result": "inhibits, at least partially, the differentiation of fetal lung tissue; also recorded: inhibits lung differentiation and development"}, {"measurement": "down-regulated genes, more than two-fold", "setting": "[4]; [6]", "result": 223, "unit": "genes"}, {"measurement": "up-regulated genes, more than two-fold", "setting": "[4]; [6]", "result": 209, "unit": "genes"}]}]}
